Values quoted from earlier work as cited in patent US20250275556A1, “N[…] METHOD FOR PRODUCING THE SAME” (Kalium Agri, Inc., priority 2024, published 2025).

Settings: magnesium supplement in cattle, in optimal situations

In the case of `[O]=[Mg]` [magnesium oxide], the digestible is listed as 19%.
